US9113629B2, “4-amino-6-(4-substituted-phenyl)-picolinates and 6-amino-2-(4-substituted-phenyl)-pyrimidine-4-carboxylates and their use as herbicides” (DOW AGROSCIENCES LLC, priority 2013, dated 2015)
Like-named read-outs stand apart in the source and are kept apart here.

What was measured:
[1] = test system: Key Broadleaf Weed and Crop Species; assay: Post-emergent Test II herbicidal activity (Table 5); format: in vivo; conditions: post-emergence, 336 h, 14 days after application; for pest or weed control at 70 g/ha: application rate 70 g ai/ha; for pest or weed control at 140 g/ha: application rate 140 g ai/ha
In short: (§1)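 Post-emergence foliar spray, 187 L/ha, track sprayer at 43 cm above canopy. Carrier: acetone/water/IPA/DMSO/Atplus 411F/Triton X-155. Plants at 1st–2nd true leaf; subirrigated afterwards; % injury scored visually at 14 d.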

[2] = test system: Key Grass and Sedge Weeds as well as Grass Crops; assay: Post-emergent Test II herbicidal activity (Table 6); format: in vivo; conditions: post-emergence, 336 h; for pest or weed control at 70 g/ha: 70 g ai/ha; for pest or weed control at 140 g/ha: 140 g ai/ha
In short: as §1

[3] = ABUTH: velvetleaf (Abutilon theophrasti), read-out: Visual Growth Reduction (%) 14 Days After Application, ABUTH
[4] = AMARE: redroot pigweed (Amaranthus retroflexus), read-out: Visual Growth Reduction (%) 14 Days After Application, AMARE
[5] = BRSNN: oilseed-rape, canola (Brassica napus), read-out: Visual Growth Reduction (%) 14 Days After Application, BRSNN
[6] = CHEAL: lambsquarters (Chenopodium album), read-out: Visual Growth Reduction (%) 14 Days After Application, CHEAL
[7] = EPHHL: wild poinsettia (Euphorbia heterophylla), read-out: Visual Growth Reduction (%) 14 Days After Application, EPHHL
[8] = HELAN: sunflower (Helianthus annuus), read-out: Visual Growth Reduction (%) 14 Days After Application, HELAN
[9] = VIOTR: wild pansy (Viola tricolor), read-out: Visual Growth Reduction (%) 14 Days After Application, VIOTR
[10] = CYPES: yellow nutsedge (Cyperus esculentus), read-out: Visual Growth Reduction (%) 14 Days After Application, CYPES
[11] = DIGSA: crabgrass (Digitaria sanguinalis), read-out: Visual Growth Reduction (%) 14 Days After Application, DIGSA
[12] = ECHCG: barnyardgrass (Echinochloa crus-galli), read-out: Visual Growth Reduction (%) 14 Days After Application, ECHCG
[13] = ORYSA: rice (Oryza sativa), crop, read-out: Visual Growth Reduction (%) 14 Days After Application, ORYSA
[14] = SETFA: giant foxtail (Setaria faberi), read-out: Visual Growth Reduction (%) 14 Days After Application, SETFA
[15] = SORVU: grain sorghum (Sorghum vulgare), read-out: Visual Growth Reduction (%) 14 Days After Application, SORVU
[16] = TRZSS (wheat, Triticum aestivum), crop, read-out: Visual Growth Reduction (%) 14 Days After Application, TRZSS
[17] = ZEAMX: maize, corn (Zea mays), crop, read-out: Visual Growth Reduction (%) 14 Days After Application, ZEAMX

For `COC(=O)c1nc(-c2ccc(I)cc2)cc(N)c1Cl` [Compound 158], the pest or weed control at 70 g/ha [1, 3] was 95 to 100%, the pest or weed control at 140 g/ha [1, 3] was 95 to 100% and the pest or weed control at 70 g/ha [1, 4] was 95 to 100%. It also gave a pest or weed control at 140 g/ha [1, 4] of 95 to 100%, a pest or weed control at 70 g/ha [1, 5] of 60 to 74% and a pest or weed control at 140 g/ha [1, 5] of 75 to 84%. The pest or weed control at 70 g/ha [1, 6] was 95 to 100%, the pest or weed control at 140 g/ha [1, 6] was 95 to 100% and the pest or weed control at 70 g/ha [1, 7] was 95 to 100%. The pest or weed control at 140 g/ha [1, 7] was 95 to 100%, the pest or weed control at 70 g/ha [1, 8] was 75 to 84% and the pest or weed control at 140 g/ha [1, 8] was 75 to 84%. The pest or weed control at 70 g/ha [1, 9] was 0 to 29%, the pest or weed control at 140 g/ha [1, 9] was 0 to 29% and the pest or weed control at 70 g/ha [2, 10] was 45 to 59%. For the same compound, the pest or weed control at 140 g/ha [2, 10] was 45 to 59%, the pest or weed control at 70 g/ha [2, 11] was 60 to 74% and the pest or weed control at 140 g/ha [2, 11] was 60 to 74%. For the same compound, the pest or weed control at 70 g/ha [2, 12] was 60 to 74%, the pest or weed control at 140 g/ha [2, 12] was 75 to 84% and the pest or weed control at 70 g/ha [2, 13] was 0 to 29%. It also gave a pest or weed control at 140 g/ha [2, 13] of 0 to 29%, a pest or weed control at 70 g/ha [2, 14] of 0 to 29% and a pest or weed control at 140 g/ha [2, 14] of 0 to 29%. It also gave a pest or weed control at 70 g/ha [2, 15] of 85 to 94%, a pest or weed control at 140 g/ha [2, 15] of 85 to 94% and a pest or weed control at 70 g/ha [2, 16] of 0 to 29%. For the same compound, the pest or weed control at 140 g/ha [2, 16] was 45 to 59%, the pest or weed control at 70 g/ha [2, 17] was 0 to 29% and the pest or weed control at 140 g/ha [2, 17] was 0 to 29%.
